Numbers after ± are expanded uncertainties.
Assay: Boiling temperature at pressure P
Details: 101.3 kPa; Liquid; Closed cell (Static) method

Boiling temperature at pressure P [°C]	Structure (SMILES)
64.69 ± 0.11	COC(=O)OC [dimethyl carbonate]
90.26 ± 0.11	CO [methanol]

Reference: the NIST ThermoML archive (doi:10.1016/j.jct.2012.05.002)
